Measured values from PMC3720870, “Chiral Hydroxylation at the Mononuclear Nonheme Fe(II) Center of 4-(S) Hydroxymandelate Synthase – A Structure-Activity Relationship Analysis” (PLoS ONE, 2013).

These molecules were tested against T1, Hms (Streptomyces coelicolor, UniProt Q9Z4X7) (assay: O2 consumption, micro-optode, steady state). Conditions: apparent constant at air saturation; 20 mM Tris/HCl pH 7.5, 25 °C; no added Fe(II).
T1 construct: gene SCO3229; full-length, C-terminal Strep-tag II kept, expressed in E. coli BL21(DE3) from pKYB1; monomer, ~45 kDa
T1 sequence (Q9Z4X7 1-371): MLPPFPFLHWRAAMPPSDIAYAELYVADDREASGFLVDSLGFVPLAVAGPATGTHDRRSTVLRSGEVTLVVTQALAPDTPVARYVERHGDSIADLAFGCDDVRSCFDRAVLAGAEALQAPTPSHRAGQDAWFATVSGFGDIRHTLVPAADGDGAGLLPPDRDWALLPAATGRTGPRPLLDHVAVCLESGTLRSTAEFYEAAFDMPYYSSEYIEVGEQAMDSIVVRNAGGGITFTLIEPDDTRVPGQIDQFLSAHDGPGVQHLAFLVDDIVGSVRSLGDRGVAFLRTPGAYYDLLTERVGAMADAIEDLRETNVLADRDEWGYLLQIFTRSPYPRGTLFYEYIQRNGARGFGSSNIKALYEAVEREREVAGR
Type: biochemical

| Km [µM] | Structure (SMILES) |
| --- | --- |
| 35 ± 20 | O=C(O)C(=O)CCc1ccccc1 [OPB, 2-Oxo-4-phenylbutanoic acid] |
| 353 ± 87 | O=C(O)C(=O)Cc1ccccc1 [PP, Phenylpyruvic acid] |
| 160 ± 70 | COc1ccc(CC(=O)C(=O)O)cc1 [VII, p-Methoxyphenylpyruvic acid] |
